In patent publication US7378447B2, “Muscarinic agonists” (Eli Lilly and Company, priority 2003, dated 2008):
Like-named read-outs stand apart in the source and are kept apart here.

Tested on: Male Sprague-Dawley rats
Settings: six-hour delay

SMILES: Nc1c2c(nc3ccccc13)CCCC2 [Tacrine, tacrine]
- retention (errors in retention session) (tacrine 3 mg/kg s.c. immediately after the sampling phase): not
- retention (errors in retention session) (tacrine 10 mg/kg s.c. immediately after the sampling phase): significantly improved retention
